Legend:
[1] = Stability assay of crystalline form (influential factors); format: physicochemical
Method: 1.1. Preparation of Samples
500 mg of the crystalline form A of the compound of formula I prepared in Example 2 was placed in a dry and clean container, and evenly spread in a thin layer as the test sample. The sample was completely exposed to experimental conditions of influential factors (40° C., 60° C., 75% RH, 92.5% RH, high temperature and high humidity (40° C., 75% RH)). Samples were taken for analysis on day 10. The samples were completely exposed to illumination (visible light of 1,200,000 Lux·hr, UV of 216 W·hr/m^2) at room temperature.
1.2. Chromatographic Conditions
Chromatographic column: Waters XBridge Shield RP18 (4.6 mm×150 mm, 3.5 μm).
The water content was measured by a Mettler V20 system.
1.3. Preparation of Sample Solution
About 12.5 mg of the sample was dissolved with an appropriate amount of a mixed diluent of acetonitrile-water (70:30) for content assay of related substance.

HBV DNA in HepAD38 cells = test: In-vitro inhibitory activity against HBV DNA in HepAD38 cells; format: cell-based; conditions: Hepatitis B virus, 144 h, 6 days treatment, intracellular capsid HBV DNA by qPCR, read-out: EC50, anti-HBV activity
Method: (§1) 2.1. In-vitro Inhibitory Activity Against HBV DNA in Cells
(§2) A vial of HepG2.2.15 cells (Wuhan Institute of Virology) or HepAD38 cells in good condition and at logarithmic growth phase was washed once with 5 mL of PBS. 3 mL of pancreatin was added. The cells were digested at room temperature for 5 min, then 2 mL of pancreatin was discarded. The cells were further digested in a cell incubator for 10 min, and observed under a microscope (whether the cells are round in shape, and whether the cells are separated or adhered). 10 mL of complete medium was added to terminate the digestion. The cells was mixed using a pipette to obtain a single cell suspension. 10 μL of the cell suspension was loaded on a cell counter for counting, and diluted with the complete medium to adjust the cell density to 1×10^5 cells/mL. The cells were seeded on a 24-well plate (pre-coated with 50 μg/mL Collagen I solution) at 1 mL/well using a multi-channel pipette and cultured in a thermostatic CO2 incubator for 48 h.
(§3) A solution of the compound dissolved in DMSO was diluted to 10 concentrations in a 2-fold gradient using complete medium. […] HBV DNA in the intracellular viral capsid was measured by real-time fluorescent quantitative PCR. The inhibition rate was calculated according to the Ct value, and the EC50 value was calculated by four-parameter fitting.

[2] = In vitro stability in mouse liver microsomes; format: in vitro ADME
Method: (§4) Experimental Example 3. In Vitro Stability in Liver Microsome A final incubation system of 300 μL contained 30 μL of liver microsomes (protein concentration: 0.15 mg/mL, Corning), 30 μL of NADPH+MgCl2, 3 μL of substrate (in acetonitrile) and 237 μL of PBS. Samples were prepared in duplicate of 0.3 mL for each specie. For each tube, the 270 μL mixed solution of substrates and enzyme and the NADPH solution were separately pre-incubated at 37° C. for 5 min. The 30 μL mixed solution of NADPH+MgCl2 was added for reaction. 50-μL samples were taken at 0 min, 10 min, 30 min and 60 min, and 300 μL of glacial acetonitrile containing an internal standard was added to the samples to terminate the reaction. Sample pretreatment: 300 μL of glacial acetonitrile containing internal standard diazepam was added to 50 μL of the incubated sample for precipitation. The mixture was vortexed for 5 min, and centrifuged (12000 rpm, 4° C.) for 10 min. 75 μL of supernatant was added to a 96-well plate and diluted with 75 μL of ultrapure water. After being mixed well, 0.5 μL of the resulting sample was injected to a LC-MS/MS system for analysis.

[3] = In vitro stability in rat liver microsomes; format: in vitro ADME
Method: as §4

[4] = Plasma protein binding assay, mouse plasma; format: in vitro ADME
Method: (§5) 2.4. Plasma Protein Binding Assay
(§6) Preparation of plasma samples: 5 μL of test compound solution or positive control was added to 495 μL of blank plasma of various species (mouse, rat, dog, monkey and human) to obtain plasma sample solutions at plasma concentrations of 1 μM and 10 μM (in acetonitrile).
(§7) The pretreated dialysis membrane was loaded on a high-throughput equilibrium dialysis system. 100 μL of the plasma sample solution and PBS buffer were added to the two sides (sample side and buffer side) of the dialysis membrane respectively (n=3). The system was sealed with a patch and incubated at 37° C. overnight (100 rpm) to achieve dialysis equilibrium. 50 μL samples were taken from the sample side and the buffer side, and the reaction was terminated with glacial acetonitrile containing an internal standard.
(§8) Sample pretreatment: 450 μL of glacial acetonitrile containing an internal standard was added to 50 μL of the sample from the plasma side for precipitation. The mixture was vortexed for 5 min, and centrifuged (12000 rpm, 4° C.) for 10 min. 75 μL of supernatant was taken and diluted with 75 μL of ultrapure water. After being mixed well, 1 μL of the resulting sample was injected for analysis; 250 μL of glacial acetonitrile containing an internal standard was added to 50 μL of the sample from the PBS side for precipitation. […]

[5] = Plasma protein binding assay, monkey plasma; format: in vitro ADME
Method: as §5, §6, §7, §8

[6] = Plasma protein binding assay, human plasma; format: in vitro ADME
Method: as §5, §6, §7, §8

[7] = Plasma protein binding assay, dog plasma; format: in vitro ADME
Method: as §5, §6, §7, §8

[8] = In vitro stability in human liver microsomes; format: in vitro ADME
Method: as §4

[9] = test system: HBV DNA in HepG2.2.15 cells; test: In-vitro inhibitory activity against HBV DNA in HepG2.2.15 cells; format: cell-based; conditions: Hepatitis B virus, 144 h, 6 days treatment, intracellular capsid HBV DNA by qPCR, read-out: EC50, anti-HBV activity
Method: as §1, §2, §3

[10] = Pharmacokinetic (PK) study in rats; format: in vivo; conditions: SD rats, PO 10 mg/kg vs IV 5 mg/kg
Method: Pharmacokinetic (PK) Study in Rats […]
The animals to be tested (SD rats) were fasted for 12 h before administration and fed 4 h after administration, and had free access to water before, after and during the experiment.
After administration, about 0.2 mL of blood was collected from the orbit at 0 min, 15 min, 30 min, 1 h, 2 h, 4 h, 6 h, 8 h, 10 h, 24 h, 30 h and 48 h. After anticoagulation with EDTA-K2, the blood samples were transferred to a centrifuge at 4° C. within 30 min and centrifuged at 4000 rpm for 10 min to separate the plasma. All the plasma samples were collected and immediately stored at −20° C. for testing.
50 μL of the plasma sample to be tested and standard curve sample were taken, and 500 μL of acetonitrile solution containing an internal standard (20 mg/mL diazepam) was added. The reaction system was shaken for 5 min and centrifuged at 12,000 rpm for 10 min. 75 μL of supernatant was taken and diluted with 75 μL of ultrapure water. After being mixed well, 1 μL of the resulting sample was taken for LC/MS/MS analysis.

[11] = Plasma protein binding assay, rat plasma; format: in vitro ADME
Method: as §5, §6, §7, §8

HepG2.2.15 cells = test: In vitro cytotoxicity (CCK-8); format: cell-based; conditions: 6 days treatment
Method: 2.2. In Vitro Cytotoxicity
A vial of HepG2.2.15 cells (Wuhan Institute of Virology) in good condition and at logarithmic growth phase was washed once with 5 mL of PBS. 2 mL of pancreatin was added. The cells were incubated in a cell incubator for digestion, and observed at times under a microscope. 1 mL of pancreatin was discarded when the cells just fell off, leaving the residual liquid only. The cells were further incubated in the incubator at 37° C. for 8-15 min of digestion and observed under a microscope (whether the cells are round in shape, and whether the cells are separated or adhered). 5 mL of MEM medium was added for cell resuspension. The cell suspension was loaded on a cell counter for counting, and diluted with the complete medium to adjust the cell density to 2×10^5 cells/mL. The cells were seeded on a 96-well plate (pre-coated with 50 μg/mL Collagen I solution) at 100 μL/well using a multi-channel pipette and cultured in a thermostatic CO2 incubator for 24 h. The compound was added, and the medium containing the compound was refreshed every 3 days. A medium containing 0.5% of DMSO but no compound was added to the control wells, and control wells of basal medium were set. After 6 days of treatment, CCK-8 was added at 10 μL/well, and after 1-2 h, the absorbance at 450 nm was measured with a plate reader. The inhibition rate and CC50 were calculated.

[12] = High humidity (75% RH), 10 days
[13] = High humidity (92.5% RH), 10 days
[14] = High temperature (40° C.), 10 days
[15] = High temperature (60° C.), 10 days
[16] = High temperature and high humidity (40° C., 75% RH), 10 days

Cc1[nH]c(C(=O)C(=O)N[C@@H](C)C(F)(F)F)c(C)c1C(=O)Nc1ccc(F)c(C#N)c1 [(S)-N-(3-cyano-4-fluorophenyl)-2,4-dimethyl-5-(2-oxo-2-((1,1,1-trifluoropropan-2-yl)amino)acetyl)-1H-pyrrol-3-formamide]
Related substance (total impurities) ([1]; Day 0): 0.57%
Water ([1]; Day 0): 0.13%
Related substance (total impurities) [1, 12]: 0.63%
Water [1, 12]: 0.15%
Related substance (total impurities) [1, 13]: 0.65%
Water [1, 13]: 0.17%
Related substance (total impurities) [1, 14]: 0.65%
Water [1, 14]: 0.17%
Related substance (total impurities) [1, 15]: 0.65%
Water [1, 15]: 0.16%
Related substance (total impurities) [1, 16]: 0.63%
Water [1, 16]: 0.16%
Related substance (total impurities) ([1]; Illumination, 10 days): 0.64%
Water ([1]; Illumination, 10 days): 0.16%
Stability at high humidity, at high temperature or under illumination ([1]; summary of Table 2): good stability

Cc1[nH]c(C(=O)C(=O)N[C@@H](C)C(F)(F)F)c(C)c1C(=O)Nc1ccc(F)c(C#N)c1 [Compound of formula I, (S)-N-(3-cyano-4-fluorophenyl)-2,4-dimethyl-5-(2-oxo-2-((1,1,1-trifluoropropan-2-yl)amino)acetyl)-1H-pyrrol-3-formamide]
EC50 (HBV DNA in HepAD38 cells): 24 nM
Mouse liver microsomes Residual content after 60 min [2]: 96%
Rat liver microsomes Residual content after 60 min [3]: 99%
Binding rate ([4]; 1 μM): 85.4%
Binding rate ([4]; 10 μM): 85.5%
Binding rate ([5]; 1 μM): 90.2%
Binding rate ([5]; 10 μM): 90.5%
Binding rate ([6]; 1 μM): 97.3%
Binding rate ([6]; 10 μM): 97.3%
Binding rate ([7]; 1 μM): 94.0%
Binding rate ([7]; 10 μM): 93.9%
Human liver microsomes Residual content after 60 min [8]: 99%
EC50 [9]: 17.4 nM
F [10]: 100%
Binding rate ([11]; 1 μM): 95.0%
Binding rate ([11]; 10 μM): 95.3%
CC50 (HepG2.2.15 cells): > 100000 nM
